Laboratory results reported in publication PMC4464647, “ANO1 (TMEM16A) in pancreatic ductal adenocarcinoma (PDAC)” (Pflugers Archiv, 2014).
d = 2'-deoxy (DNA)

Key:
Assay type in all cases: cell-based, human
[1] = test system: BxPC-3 cells; assay: BrdU incorporation cell proliferation assay; settings: BxPC-3, inhibitor 20 μM, 24 h
Experimental: To assess cell proliferation and apoptosis, cells were plated in duplicates on a 96-well plate and incubated in 100 μl of the cell line appropriate media described above. Cells were transfected with siRNA soon after complete attachment (approx. 3 h after seeding). Cells were treated with vehicle, 20 μM gemcitabine, 20 μM T16Ainh-A01, or 10 μM free NS3728 (see below) after culture in a humidified 37 °C and 5 % CO2 incubator overnight. BrdU incorporation was measured using Cell Proliferation ELISA, BrdU (chemiluminescent) (Roche Diagnostics A/S, Denmark) following the manufacturer’s instructions. Caspases 3, 6, and 7 activation was evaluated using Homogeneous Caspases Assay (fluorimetric) (Roche Diagnostics A/S, Denmark).
Fig. 7 VRAC, but not ANO1, regulates cellular proliferation. a Summary of BrdU incorporation in HPDE, Capan-1, AsPC-1, and BxPC-3 cells after various treatments as indicated. Cells were transfected shortly after complete attachment (approx. 3 h) and BrdU incorporation was assessed 36 h after transfection. To investigate effect of inhibitors, cells were incubated for 24 h with respective inhibitor. Values shown are relative to appropriate control. Data shown represents mean ± s.e.m. of n = 4–6 individual experiments. **p ≤ 0.01 and ***p ≤ 0.001 when compared with control

[2] = test system: BxPC-3 cells; assay: Fura-2 measurement of free intracellular calcium, ATP stimulation; settings: for effect on basal [Ca2+]i: BxPC-3, inhibitor 20 μM
Experimental: (§1) HPDE and BxPC-3 cells were incubated with 2 μM Fura-2 AM (Sigma-Aldrich, Denmark) for 30 min at 37 °C. Cells were subsequently washed with Krebs solution containing (in mM) 150 NaCl, 6 KCl, 1.5 CaCl2, 1 MgCl2, 10 glucose, and 10 HEPES; pH was adjusted to 7.4 using NaOH. Coverslips were mounted on a recording chamber. In the beginning of the experiment, cells were perfused with Krebs solution at 4 ml/min until baseline was stable. […] Changes in [Ca^2+]i were measured by a TIRF iMIC microscope (TILL Photonics, Germany). Fura-2 AM loaded cells were illuminated at 340 nm for 80 ms and 380 nm for 80 ms at 1 s intervals using a TILL Polychrome monochromator. Five hundred-nanometer emission images were captured by an image-intensifying, charge-coupled device (CCD) camera (TILL Photonics, Germany) and digitized by an image processing system (TILL Photonics, Germany). The monochromator and CCD camera were controlled by LA Live Acquisition software, which was also used for image analysis. The [Ca^2+]i was presented as the Fura-2 ratio of the fluorescence signals obtained at 340/380 nm.
(§2) Fig. 8 Cl^− channel inhibitors alter ATP-induced Ca^2+ signals. Intracellular Ca^2+ measurements in FURA-2 loaded HPDE and BxPC-3 cells. a Representative single-cell traces of individual experiments. Different substances were applied as indicated. […] (n) = number of individual experiments; each containing between 5–45 single cells.***p ≤ 0.001 when compared to no inhibitor condition; ^## p ≤ 0.01 when compared with HPDE no inhibitor
(§3) Activation of CaCC requires an increase in [Ca^2+]i, which can be achieved by stimulation of receptors such as purinergic receptors. Therefore, we studied the effect of Cl^− channel inhibitors on changes in [Ca^2+]i induced by purinergic signaling. We chose HPDE cells with very low expression levels of ANO1 and the highly ANO1 overexpressing cell line BxPC-3 for investigation. Fura-2 loaded HPDE and BxPC-3 cells were stimulated with ATP (10 μM) (Fig. 8) or exposed to the inhibitor prior to stimulation. ATP stimulation caused a 0.46 ± 0.03 peak increase in the Fura-2 ratio in HPDE and 0.55 ± 0.02 in BxPC-3 cells. […] However, no effect of the inhibitor on basal Ca^2+ level was observed.

[3] = test system: HPDE cells; assay: as above; settings: for effect on basal [Ca2+]i: inhibitor 20 μM
Experimental: as §1, §2, §3

[4] = test system: AsPC-1 cells; assay: Scratch wound healing assay; settings: AsPC-1, siRNA 50 nM vs scrambled 5 nM, 5 μM aphidicolin
Experimental: Cells were seeded into Essen ImageLock 96-well plates. Cells were transfected with siRNA shortly after cells completely attached at 80 % confluency. […] The wound confluence was obtained and analyzed by using the IncuCyte phase-contrast imaging and scratch wound assay system and software (Essen Bioscience, USA). Wound closure was assessed by comparing the mean relative wound density (%RWD) according to the following formula: % RWD = 100 × w(t) − w(0)/[…]. Here, w(t) is the density of wounded area at time t and c(t) is the density of cell region at time t. Each experiment was conducted in triplicates.
We therefore assessed a possible contribution of ANO1 in PDAC cell migration using wound healing assay. […] The experiments were conducted in the presence of 5 μM aphidicolin to rule out a possible effect on cell proliferation. […] AsPC-1 cells were therefore not well suited for studies of lateral motility.
Fig. 9 ANO1 supports migration of PDAC cells. Wound healing assay is shown as relative wound density (density of wounded area relative to confluency of cell region) over time. Aphidicolin (5 μM) was added to stop proliferation. a AsPC-1 cells and b BxPC-3 cells after transfection with either scrambled siRNA (5 nM) or siRNA targeting ANO1 (50 nM). c BxPC-3 cells in presence of different inhibitors. Data shown represents mean ± s.e.m. of n = 4 experiments; each run was carried out in triplicates

Q: How did the “proliferation (BrdU incorporation)” value [1] turn out when `CCc1c(C)nc(SCC(=O)Nc2nc(-c3ccc(OC)cc3)cs2)[nH]c1=O` [T16Ainh-A01, 2-[(5-Ethyl-1,6-dihydro-4-methyl-6-oxo-2-pyrimidinyl)thio]-N-[4-(4-methoxyphenyl)-2-thiazolyl]acetamide] was run?
A: Its value is “slight, but non-significant decrease of proliferation”.

Q: What about the “effect on basal [Ca2+]i” value [2] of the same molecule?
A: The value was “no effect”.

Q: And the “ATP-induced change in Fura-2 ratio after inhibitor” value ([2]; BxPC-3, inhibitor 20 μM before ATP 10 μM)?
A: The value was 0.42 ± 0.03.

Q: And the “effect on basal [Ca2+]i” value [3]?
A: Its value is “no effect”.

Q: And the “ATP-induced change in Fura-2 ratio after inhibitor” value ([3]; inhibitor 20 μM before ATP 10 μM)?
A: Its value is 0.32 ± 0.03.

Q: How did the “migration (relative wound density over time)” value [4] turn out when “siRNA targeting ANO1: Predesigned siRNA oligo from Sigma-Aldrich, 5′-CCUUCAACGUCAGUGACUU[dT][dT]-3′, 5′-AAGUCACUGACGUUGAAGG[dT][dT]-3′ (RNA, 3' dTdT, backbone not given here)” was run?
A: The value was “significantly decreased migration”.

Q: `CC(C)(C)C1CCc2c(sc(NC(=O)c3ccco3)c2C(=O)O)C1` (stereo not drawn) [CaCCinh-A01, 6-(1,1-dimethylethyl)-2-[(2-furanylcarbonyl)amino]-4,5,6,7-tetrahydrobenzo[b]thiophene-3-carboxylic acid] was tested. Which “proliferation (BrdU incorporation)” value [1] did it give?
A: The value was “larger effect”.

Q: What about the “effect on basal [Ca2+]i” value [2] of the same molecule?
A: Its value is “reversible increase”.

Q: What about the “effect on basal [Ca2+]i” value [3] of the same molecule?
A: The value was “reversible increase”.
